Test system: dendritic cells
Test: Transwell overlaid with type 1 collagen or HMVEC-dLy monolayer, chemotaxis to CCL21 with and without Sema3A, after myosin II or Rho kinase inhibition
Type: cell-based, mouse
Procedure: An uncoated Transwell (pore diameter 5.0 μm; Corning) was placed in a 24-well plate containing CCL21 or CSCL12 in 0.6 ml of RPM1 containing 0.1% BSA. 1×10^5 dendritic cells in 0.1 ml of solution were added to the upper well of the Transwell, and incubated for 3 hours at 37° C. The cells in the […] chamber were ablated for 5 minutes with 5 mM PBS-EDTA, and counted by Guava. Fibronectin ([…]), type 1 collagen (3.0 mg/ml) or lymphatic endothelial cells were laid over the membrane of the top chamber for purposes of in vitro migration assay. In brief, 2×10^4 SVEC4-10 or HMVEC-dLy cells were seeded on the top or bottom surface of a Transwell insert coated with 2 μg/ml of fibronectin. […]
BMDC cells that had been treated for 30 minutes at 37° C. with 50 μM of blebbistatin or 30 μM of Y-27632 were applied to the upper chamber of a Transwell (pore diameter: 5 μm) overlaid with 3 mg/ml of type 1 collagen (left panel) and an HMVEC-dLy monolayer (right panel), and chemotaxis in response to CCL21 was measured in the […] chamber with and without Sema3A. The overall difference between groups was evaluated by one-way ANOVA. […]
A Transwell test was performed by the following methods. […] The cells in the lower chamber were ablated for 5 minutes by treatment with 5 mM of PBS-EDTA, and counted by Guava ViaCount assay on a Guava PCA system. […]

Compound	effect of Sema3A on dendritic cell trafficking after inhibitor treatment (DC cells treated 30 minutes at 37° C. with 30 μM Y-27632)	effect of Sema3A on dendritic cell trafficking after inhibitor treatment (DC cells treated 30 minutes at 37° C. with 50 μM blebbistatin)
C[C@@H](N)[C@H]1CC[C@H](C(=O)Nc2ccncc2)CC1 [Y-27632]	disappeared	
Cc1ccc2c(c1)C(=O)C1(O)CCN(c3ccccc3)C1=N2 (centres unmarked) [blebbistatin]		disappeared
